Results from article PMC9720346, “Suppression of amyloid-β fibril growth by drug-engineered polymorph transformation” (The Journal of Biological Chemistry, 2022).

Columns and labels:
Aβ40 = molecular target: T1, Aβ40 (Homo sapiens, UniProt P05067); experiment: Thioflavin T (ThT) fluorescence assay of Aβ40 fibrillization; format: biochemical; conditions: 50 μM Aβ40, bexarotene 17 and 50 μM, 35 μM ThT, 40 mM sodium phosphate pH 7.4, 37 °C, ex 442/em 488 nm, 15 h
T1 construct: host or cells: E. coli BL21(DE3)
T1 sequence (P05067 671-711): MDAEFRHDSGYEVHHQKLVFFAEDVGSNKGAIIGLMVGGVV
Procedure: To monitor the evolution of fibrillization and the overall impact of bexarotene, we employed the fluorescence intensity emitted at 488 nm by the dye thioflavin T (ThT) in the presence of Aβ sheets, which is expected to scale the total amyloid mass ([42]).
The stock solution of ThT was prepared by dissolving ThT (Sigma–Aldrich) in ethanol (Decon Labs) and filtering through […] polyethersulfone syringe filter. […] For control experiment, ammonium acetate solution in a volume equivalent to the peptides volume was added to the growth buffer instead of Aβ40 peptides. […] The ThT fluorescence signal was measured at 37 °C (with mixing every 5 min) every 15 min with excitation and emission at 442 and 488 nm, respectively, for a period of 15 h using SpectraMax Gemini EM Microplate Reader (Molecular Devices). The sigmoid curves were obtained by subtracting the […] of the control and normalizing all the data points to their maximum value.
Thioflavin T (ThT) fluorescence assay. […] The concentration was determined by measuring the absorbance at 416 nm using the extinction coefficient of 26.6 mM^-1 cm^-1. […] The ThT fluorescence signal was measured at 37 °C (with mixing every 5 minutes) every 15 minutes with excitation and emission at 442 nm and 488 nm, respectively, for a time period of 15 hours using SpectraMax Gemini EM Microplate Reader (Molecular Devices). […]

Aβ40 peptides = molecular target: T2, Aβ40 peptides (Homo sapiens, UniProt P05067); experiment: Complexation of Aβ40 with bexarotene (UV absorbance titration at 280 nm); format: binding; conditions: 156 μM Aβ40 in ammonium acetate titrated with 20 aliquots of 142 μM bexarotene; absorbance at 280 nm vs sum of individual absorbances
T2 construct: host or cells: E. coli BL21(DE3)
T2 sequence (P05067 671-711): as above
Procedure: This addition was repeated 20 times.
Complexation of Aβ40 with bexarotene. To determine the extinction coefficient of bexarotene at 280 nm, we measured the absorbance of bexarotene at 14 gradually decreasing concentrations (Fig. S2A). The stock solution of bexarotene (0.2 mM) was diluted in ammonium acetate to achieve the desired concentrations. Then, the correlation between absorbance and bexarotene concentration was plotted and the extinction coefficient was obtained from the slope of the best linear regression fit (ε280 = 10370 ± 83 M^-1 cm^-1).
This addition was repeated 20 times, and at each step, a spectrum was collected using DU 800 Spectrophotometer (Beckman Coulter).

[1] = molecular target: T3, Aβ40 fibrils nucleated in the absence of bexarotene (normal fibrils) (Homo sapiens, UniProt P05067); experiment: Time-resolved in situ AFM: growth rate of normal Aβ40 fibrils after adding bexarotene; format: biochemical; conditions: 3 μM Aβ40, bexarotene 0.1, 0.5 and 1.0 μM, 27 °C, about 30 measurements per concentration
T3 construct: host or cells: E. coli BL21(DE3)
T3 sequence (P05067 671-711): as above
Procedure: We deposit fibrils preformed in the absence of bexarotene on mica and monitor the growth of the fibril tips along the fibril axis with respect to immobile reference points (Fig. 2B) in Aβ40 solutions with known concentrations. We evaluate the fibril growth rate as the slope of the time correlation of the fibril tip displacement (Fig. 2C) ([41]). […] Fibril growth comprises association of peptide chains to fibril tips.
To prepare samples for AFM growth rate measurements, 2 μl of second-generation normal (or bexarotene) fibrils was added to the fibril growth buffer. Urea (Sigma–Aldrich) was also added to the solution, to a final concentration of 1 M, if needed based on the experiments. The diluted fibril solution then was sonicated (6 W output) for 2 min with 15 s intervals on ice and was kept at 27 °C for at least 15 min to equilibrate the temperature. Then Aβ40 peptides were added to the fibril solution at a desired final concentration, and the total volume of the solution was adjusted to 1 ml. […]
To study the effect of bexarotene on normal and bexarotene fibril growth rates (Figs. 2D and 5D), first, a fibril suspension at 3 μM Aβ40 peptide concentration was prepared as described previously, without bexarotene, and the fibril growth was monitored with AFM in tapping mode for 15 to 30 min. […]

[2] = molecular target: T4, Aβ40 fibrils with structure imposed by bexarotene (bexarotene fibrils) (Homo sapiens, UniProt P05067); experiment: Time-resolved in situ AFM: growth rate of bexarotene fibrils after adding bexarotene; format: biochemical; conditions: 3 μM Aβ40, 1 μM bexarotene, 27 °C
T4 construct: host or cells: E. coli BL21(DE3)
T4 sequence (P05067 671-711): as above
Procedure: To prepare samples for AFM growth rate measurements, 2 μl of second-generation normal (or bexarotene) fibrils was added to the fibril growth buffer. Urea (Sigma–Aldrich) was also added to the solution, to a final concentration of 1 M, if needed based on the experiments. The diluted fibril solution then was sonicated (6 W output) for 2 min with 15 s intervals on ice and was kept at 27 °C for at least 15 min to equilibrate the temperature. Then Aβ40 peptides were added to the fibril solution at a desired final concentration, and the total volume of the solution was adjusted to 1 ml.
Multimode atomic force microscope (Nanoscope VIII or IV; Bruker) in tapping mode was used to monitor the growth of fibrils. To collect images, 500 μl of the prepared sample was injected into the AFM liquid cell over freshly cut mica (Ted Pella, Inc) attached to a 15 mm metal disk (Ted Pella, Inc), and to avoid any leakage, an O-ring was inserted firmly to the liquid cell. The temperature in the liquid cell reached equilibrium of 27.0 ± 0.1 °C within 15 min, higher than room temperature (ca. 22 °C), because of heating by the AFM scanner and laser ([69], [70], [71]). Height, amplitude, and phase images were collected in image sizes ranged from 2 μm × 2 μm to 8 μm × 8 μm, and scan rates range between 3 and 3.5 s^−1 in most images. […]

Aβ42 = conditions: cited from earlier work

C=C(c1ccc(C(=O)O)cc1)c1cc2c(cc1C)C(C)(C)CCC2(C)C [bexarotene]
initial period of negligible ThT fluorescence (fibril nucleation delay) (Aβ40): suppresses Aβ40 fibril nucleation | binding of bexarotene to Aβ40 monomers (complex formation) (Aβ40 peptides): does not perceptibly bind | average growth rate of normal fibrils after adding bexarotene [1]: does not modify the average growth rates | growth rate of bexarotene fibrils after adding bexarotene [2]: does not inhibit or promote the growth | binding of bexarotene to Aβ42 (Aβ42): undetectable binding
